Data from article PMC6691772, “Novel phthalimide based analogues: design, synthesis, biological evaluation, and molecular docking studies” (Journal of Enzyme Inhibition and Medicinal Chemistry, 2019).
In brackets after ≈: the same amount, converted by molar mass.

How the values were obtained:
C. albicans RCMB 005036 = assay: Agar well diffusion, inhibition zone; assay type: cell-based, Candida albicans; set-up: key: –: -: No activity under the screening conditions; details: 1 mg/mL, mean of three values
S. pneumonia RCMB 010010 [1] = assay: Agar well diffusion, inhibition zone; assay type: cell-based, Streptococcus pneumoniae; set-up: key to Mean diameter of inhibition zone (Mean ± SEM): –: -: No activity under the screening conditions; details: mean of three values; for zone of inhibition at 1000 µg/mL: Streptococcus pneumoniae, RCMB010010, 1 mg/mL, read-out: Mean diameter of inhibition zone (Mean ± SEM); for Mean diameter of inhibition zone (Mean ± SEM): 1 mg/mL
[2] = system: P. aeruginosa RCMB 010043; assay: Agar well diffusion, inhibition zone; assay type: cell-based, Pseudomonas aeruginosa; set-up: key to Mean diameter of inhibition zone (Mean ± SEM): –: -: No activity under the screening conditions; details: mean of three values; for Mean diameter of inhibition zone (Mean ± SEM): 1 mg/mL; for zone of inhibition at 1000 µg/mL: Pseudomonas aeruginosa, RCMB010043, 1 mg/mL, read-out: Mean diameter of inhibition zone (Mean ± SEM)
B. subtilis RCMB 010067 [3] = assay: Agar well diffusion, inhibition zone; assay type: cell-based, Bacillus subtilis; set-up: key to Mean diameter of inhibition zone (Mean ± SEM): –: -: No activity under the screening conditions; details: mean of three values; for zone of inhibition at 1000 µg/mL: Bacillus subtilis, RCMB010067, 1 mg/mL, read-out: Mean diameter of inhibition zone (Mean ± SEM); for Mean diameter of inhibition zone (Mean ± SEM): 1 mg/mL
E. coli RCMB 010052 [4] = assay: Agar well diffusion, inhibition zone; assay type: cell-based, Escherichia coli; set-up: key to Mean diameter of inhibition zone (Mean ± SEM): –: -: No activity under the screening conditions; details: mean of three values; for Mean diameter of inhibition zone (Mean ± SEM): 1 mg/mL; for zone of inhibition at 1000 µg/mL: Escherichia coli, RCMB010052, 1 mg/mL, read-out: Mean diameter of inhibition zone (Mean ± SEM)
[5] = system: P. aeruginosa RCMB 010043; assay: Minimum inhibitory concentration, modified agar well diffusion; assay type: cell-based; details: Pseudomonas aeruginosa, RCMB010043, mean of three values, read-out: MIC (Mean ± SEM)
E. coli RCMB 010052 [6] = assay: as above; assay type: cell-based; details: Escherichia coli, RCMB010052, mean of three values, read-out: MIC (Mean ± SEM)
A. fumigatus RCMB 002568 [7] = assay: Agar well diffusion, inhibition zone; assay type: cell-based, Aspergillus fumigatus; set-up: key to Mean diameter of inhibition zone (Mean ± SEM): –: -: No activity under the screening conditions; details: mean of three values; for Mean diameter of inhibition zone (Mean ± SEM): 1 mg/mL; for zone of inhibition at 1000 µg/mL: Aspergillus fumigatus, RCMB002568, 1 mg/mL, read-out: Mean diameter of inhibition zone (Mean ± SEM)
[8] = system: human liver cancer cell line (HepG-2); assay: MTT anticancer assay; assay type: cell-based; details: HepG2, HePG-2 cancer liver cell line, mean of three values, read-out: IC50 (Mean ± SEM)
[9] = system: (THLE-2) normal liver cell line; assay: Cytotoxic screening on normal liver cells; assay type: cell-based; details: Homo sapiens, mean of three values, read-out: IC50 (Mean ± SEM)
[10] = system: tested bacterial and fungal strains; assay: Antimicrobial screening, summary over all tested strains; assay type: cell-based; details: 1 mg/mL
From the text: All bacterial and fungal strains were received from the culture collection of the Regional Center for Mycology and Biotechnology (RCMB), Al-Azhar University, Cairo, Egypt. All target derivatives were screened in-vitro opposite to various kinds of bacteria, Gram-positive bacteria (Streptococcus pneumoniae and Bacillus subtilis) and Gram-negative bacteria (Pseudomonas aeruginosa and Escherichia coli) and for their Antifungal activities against Aspergillus fumigatus and Candida albicans, respectively. Ampicillin and gentamycin were used as standard antibacterial drugs while amphotericin B was used as reference antifungal drug. The diameter of inhibition zone (mm) was measured for the biological activity using the diffusion technique. The promising compounds were further investigated to evaluate their antimicrobial activity expressed in terms of minimum inhibitory concentration (MIC) using the modified agar well diffusion method.
The newly prepared targets were subjected for in-vitro antibacterial screening against Gram-positive bacteria (Streptococcus pneumonia and Bacillus subtilis) and Gram-negative bacteria (Pseudomonas aeruginosa and Escherichia coli). […] The compounds’ solutions of concentrations (1 mg/mL) were evaluated against the different microorganism’s and the inhibition zone (IZ) used diameter in mm for the biologically activity (agar well diffusion method).

B. subtilis RCMB 010067 [11] = assay: Minimum inhibitory concentration, modified agar well diffusion; assay type: cell-based; details: Bacillus subtilis, RCMB010067, mean of three values, read-out: MIC (Mean ± SEM)
S. pneumonia RCMB 010010 [12] = assay: as above; assay type: cell-based; details: Streptococcus pneumoniae, RCMB010010, mean of three values, read-out: MIC (Mean ± SEM)
A. fumigatus RCMB 002568 [13] = assay: as above; assay type: cell-based; details: Aspergillus fumigatus, RCMB002568, mean of three values, read-out: MIC (Mean ± SEM)

SMILES | Mean diameter of inhibition zone (Mean ± SEM) (C. albicans RCMB 005036) | zone of inhibition at 1000 µg/mL (S. pneumonia RCMB 010010 [1]) [mm] | Mean diameter of inhibition zone (Mean ± SEM) [2] | zone of inhibition at 1000 µg/mL (B. subtilis RCMB 010067 [3]) [mm] | Mean diameter of inhibition zone (Mean ± SEM) (E. coli RCMB 010052 [4]) | MIC [5] [µg/mL] | MIC (E. coli RCMB 010052 [6]) [µg/mL] | Mean diameter of inhibition zone (Mean ± SEM) (A. fumigatus RCMB 002568 [7]) | IC50 [8] [µg/mL] | zone of inhibition at 1000 µg/mL [2] [mm] | zone of inhibition at 1000 µg/mL (E. coli RCMB 010052 [4]) [mm] | melting point [°C] | IC50 [9] [µg/mL] | antimicrobial activity, overall [10] | Mean diameter of inhibition zone (Mean ± SEM) (S. pneumonia RCMB 010010 [1]) | Mean diameter of inhibition zone (Mean ± SEM) (B. subtilis RCMB 010067 [3]) | MIC (B. subtilis RCMB 010067 [11]) [µg/mL] | MIC (S. pneumonia RCMB 010010 [12]) [µg/mL] | MIC (A. fumigatus RCMB 002568 [13]) [µg/mL] | zone of inhibition at 1000 µg/mL (A. fumigatus RCMB 002568 [7]) [mm]
CC1(C)S[C@@H]2[C@H](NC(=O)[C@H](N)c3ccccc3)C(=O)N2[C@H]1C(=O)O [Ampicillin, reference compound] | – | 23.8 ± 0.71 | – | 26.4 ± 0.5 | – | 3.9 ± 0.15 (≈ 11.2 µM) | 0.98 ± 1.05 (≈ 2.8 µM) | – |  |  |  |  |  |  |  |  |  |  |  | 
CCOC(=O)C(C#N)=NNN1C(=O)c2ccccc2C1=O [Compound 3, Ethyl 2-cyano-2-(2-(1,3-dioxoisoindolin-2-yl)hydrazono)acetate] | – | 18.3 ± 0.7 |  | 17.3 ± 0.6 |  |  |  | – | 12.6 ± 0.13 (≈ 44 µM) | 15.3 ± 0.7 | 17.1 ± 0.5 | 128 to 129 | 716.37 ± 0.1 (≈ 2500 µM) |  |  |  |  |  |  | 
O=C1Cn2nc(O)c(N=NN3C(=O)c4ccccc4C3=O)c2N1 [Compound 5, 2-((6-Hydroxy-2-oxo-2,3-dihydro-1H-imidazo[1,2-b]pyrazol-7-yl)diazenyl)-isoindoline-1,3-dione] | – |  | – |  | – |  |  | – | 31.8 ± 1.56 (≈ 102 µM) |  |  | 157 to 158 | 597.83 ± 0.14 (≈ 1910 µM) | no antimicrobial activities | – | – |  |  |  | 
NC1=Nc2c(N=NN3C(=O)c4ccccc4C3=O)c(O)nn2C1 [Compound 6, 2-((2-Amino-6-hydroxy-3H-imidazo[1,2-b]pyrazol-7-yl)diazenyl)isoindoline-1,3-dione] | – | 20.8 ± 1.5 |  | 17.8 ± 1.2 |  |  |  | – | 14.4 ± 0.37 (≈ 46.3 µM) | 11.9 ± 1.3 | 16.3 ± 0.5 | 180 to 182 | 652.46 ± 0.03 (≈ 2100 µM) |  |  |  |  |  |  | 
O=C1c2ccccc2C(=O)N1N=Nc1c(O)nn2cc(-c3ccccc3)[nH]c12 [Compound 7, 2-((6-Hydroxy-2-phenyl-1H-imidazo[1,2-b]pyrazol-7-yl)diazenyl)isoindoline-1,3-dione] | – | 12.7 ± 0.6 |  | 21.5 ± 1.5 |  |  |  | – | 23.6 ± 1.32 (≈ 63.4 µM) | 16.9 ± 1.2 | 11.9 ± 1.3 | 196 to 198 | 662.58 ± 0.17 (≈ 1780 µM) |  |  |  |  |  |  | 
CSc1c(C#N)c(N)nc2c(N=NN3C(=O)c4ccccc4C3=O)c(O)nn12 [Compound 9, 5-Amino-3-((1,3-dioxo-1,3-dihydro-2H-isoindol-2-yl)diazenyl)-2-hydroxy-7-(methylthio)pyrazolo[1,5-a]pyrimidine-6-carbonitrile] | – | 22.2 ± 0.6 |  | 23.2 ± 1.5 |  | 15.6 ± 0.26 (≈ 39.6 µM) | 0.49 ± 1.08 (≈ 1.24 µM) |  | 5.6 ± 1.57 (≈ 14.2 µM) | 17.2 ± 1.3 | 24 ± 1.3 | 210 to 211 | 754.31 ± 0.2 (≈ 1910 µM) |  |  |  | 1.95 ± 1.3 (≈ 4.94 µM) | 3.9 ± 0.2 (≈ 9.89 µM) | 1.95 ± 0.34 (≈ 4.94 µM) | 16.6 ± 1.3
CN(C)C=NC1=NNC(=O)C1=NNN1C(=O)c2ccccc2C1=O [Compound 10, N'-{4-[(1,3-dioxo-1,3-dihydro-2H-isoindol-2-yl)hydrazono]-5-oxo-4,5-dihydro-1H-pyrazol-3-yl}-N,N-dimethylimidoformamide] | – | 14.2 ± 0.4 |  | 11.3 ± 0.7 |  |  |  |  | 16.7 ± 0.26 (≈ 51.1 µM) | 12.3 ± 0.4 | 22.6 ± 1.5 | 136 to 138 | 688.29 ± 0.11 (≈ 2100 µM) |  |  |  |  |  |  | 12.1 ± 1.5
N#Cc1cnc2c(N=NN3C(=O)c4ccccc4C3=O)c(O)nn2c1N [Compound 12, 7-Amino-3-[(1,3-dioxo-1,3-dihydro-2H-isoindol-2-yl)diazenyl]-2-hydroxy-pyrazolo[1,5-a]pyrimidine-6-carbonitrile] | – | 18.6 ± 1.2 |  | 24.3 ± 0.6 |  | 62.5 ± 1.06 (≈ 179 µM) | 3.9 ± 0.03 (≈ 11.2 µM) |  | 9.11 ± 1.02 (≈ 26.2 µM) | 15.8 ± 1.5 | 21.8 ± 1.3 | 302 | 793.56 ± 0.31 (≈ 2280 µM) |  |  |  | 0.98 ± 1.18 (≈ 2.81 µM) | 7.81 ± 1.01 (≈ 22.4 µM) | 3.9 ± 1 (≈ 11.2 µM) | 20.7 ± 1.2
N#Cc1nnc2c(N=NN3C(=O)c4ccccc4C3=O)c(O)nn2c1N [Compound 16, 4-Amino-8-[(1,3-dioxo-1,3-dihydro-2H-isoindol-2-yl)diazenyl]-7-hydroxy-pyrazolo[5,1-c][1,2,4]triazine-3-carbonitrile] | – | 22.8 ± 0.7 |  | 18.8 ± 1.4 |  | 15.6 ± 1.25 (≈ 44.8 µM) | 1.95 ± 1.49 (≈ 5.58 µM) |  | 7.5 ± 0.84 (≈ 21.5 µM) | 18.1 ± 0.6 | 23.7 ± 0.7 | 320 | 820.58 ± 0.18 (≈ 2350 µM) |  |  |  | 7.81 ± 1.16 (≈ 22.4 µM) | 3.9 ± 1.24 (≈ 11.2 µM) | 3.9 ± 0.39 (≈ 11.2 µM) | 22.9 ± 1.3
CCOC(=O)c1nnc2c(N=NN3C(=O)c4ccccc4C3=O)c(O)nn2c1C [Compound 17, Ethyl 8-[(1,3-dioxo-1,3-dihydro-2H-isoindol-2-yl)diazenyl]-7-hydroxy-4-methyl-pyrazolo[5,1-c][1,2,4]triazine-3-carboxylate] | – | 21.9 ± 1.2 |  | 20.2 ± 1.2 |  | 62.5 ± 0.71 (≈ 158 µM) | 3.9 ± 1.24 (≈ 9.87 µM) |  | 9.92 ± 1.28 (≈ 25.1 µM) | 15.5 ± 1.2 | 20.5 ± 1.3 | > 300 | 658.13 ± 0.25 (≈ 1660 µM) |  |  |  | 3.9 ± 1.38 (≈ 9.87 µM) | 3.9 ± 0.01 (≈ 9.87 µM) | 15.6 ± 1.05 (≈ 39.5 µM) | 16.9 ± 1.2
CNC(C)C1CCC(N)C(OC2C(N)CC(N)C(OC3OCC(C)(O)C(NC)C3O)C2O)O1 (centres unmarked) [Gentamycin, reference compound] | – |  |  |  |  |  |  | – |  | 19.7 ± 0.6 | 24.9 ± 1.5 |  |  |  | – | – |  |  | 1.95 ± 0.03 (≈ 4.08 µM) | 
CC[C@]1(O)C[C@@H]2CN(CCc3c([nH]c4ccccc34)[C@@](C(=O)OC)(c3cc4c(cc3OC)N(C)[C@H]3[C@@](O)(C(=O)OC)[C@H](OC(C)=O)[C@]5(CC)C=CCN6CC[C@]43[C@@H]65)C2)C1 [Vinblastine, reference compound] |  |  |  |  |  |  |  |  | 4.63 ± 1.07 (≈ 5.71 µM) |  |  |  | 2146.1 ± 0.1 (≈ 2650 µM) |  |  |  |  |  |  | 
